The source of these data is a melting point compilation (Tetko et al.; mined from patent text by program, amines drawn as free bases though some values may be those of a salt).

A value given as a limit tells only on which side of the number the result lay.

What is called melting point is the temperature of the solid-liquid transition. For `O=C(O)c1cn(C2CC2)c2c(F)c(N3CCC4(C3)OCCCO4)c(F)cc2c1=O`, the melting point was 226 to 227 °C. The compound `COc1ccc(-c2cc(C(F)(F)F)n3ncc(-c4ccncc4)c3n2)cc1` came in with a melting point of 244 °C. For `CCCCCCCCCCCCc1nnn(C(CCC)C(=O)Nc2c(OC)cc(OC)cc2OC)n1` (stereo unspecified), the melting point was 146 to 148 °C. In turn, `COc1ccc2[nH]c(SCc3ncc(C)c(N4CCCCC4)c3Cl)nc2c1` returned a melting point of 154 to 156 °C. The figure for `CCCc1ccnc(C(=O)OCC)c1N` is 93 to 96 °C; for `Cc1nc(-c2ccc(=O)n(C(C)C)n2)c(-c2ccccc2)nc1O` it is above 250 °C.

`COc1cc2c(cc1OC)C(=O)NN(CCCO)C2` showed a melting point of 178 °C. The figure for `Nc1ccc2c(c1)CC(N1CCN(CCN3CCOC3=O)CC1)c1ccccc1S2` (stereo unspecified) is 193 to 196 °C; for `CCCCCN(C(=O)Nc1ccc(C(=O)O)cc1F)c1ccc2c(c1)C(C)(C)CCC2(C)C` it is 151 to 157 °C; for `Nc1nc(OS(=O)(=O)Cl)nn1C(=O)Oc1ccccc1` it is 164 °C. As for `CCCc1c(OCC(C)CC(=O)NCCCCc2cccnc2)ccc(C(C)=O)c1O` (stereo unspecified), the figure is 58 to 60 °C; as for `CCN1CCC(O)(c2cc(F)cc(Cl)c2)C1` (stereo unspecified), 117 to 118 °C; as for `CCCCCCCCCCC(O)C1CCC(C2CCC(C(O)CCCCCCCCCCC3CC(CC(C)=O)C(=O)O3)O2)O1` (stereo unspecified), 90.5 to 90.7 °C. For `CC(C)(C)OC(=O)N1CCN(c2ccc(OC[C@@]3(C)Cn4cc([N+](=O)[O-])nc4O3)cc2Cl)CC1`, the melting point lay in the range of 207 to 210 °C. The figure for `CC(C)(C)CNc1cc(N2CCNCC2)nc(N2CCCC2)n1` is 140 to 145 °C; for `CCCCOc1ccc(S(=O)(=O)NC(=NO)Nc2ccc(Cl)cc2)cc1` it is 175 to 176 °C; for `OCCc1nccn1CCCCc1ccc(OCc2coc(/C=C/c3ccc(F)cc3)n2)cc1` it is 130 to 132 °C. In turn, `O=C(NC(CC1CCCC1)C(=O)NC1CCCN(S(=O)(=O)c2ccccc2)CC1=O)c1ccco1` (stereo unspecified) yielded a melting point of 88 to 90 °C.

As for `CCCCCCCNC(=O)Nc1cccc(N(C)C)c1C(=O)NC1CCN(C(c2ccccc2)c2ccccc2)CC1`, the melting point is 77 °C. Compound `CCOc1cc(C2CC=CN(C(=O)c3ccc(NC(=O)OCCCN(C)C)cc3)N2)ccc1OC` (stereo unspecified) came in with a melting point of 193 °C. `O=C(O)Cc1ccc2c(c1)C(=O)Cc1cccnc1O2`: the melting point was 181 to 184 °C. As for `Fc1ccc2c(c1)Cc1cccnc1-2`, the figure is 80 to 84 °C; as for `c1ccc(OCCSCc2nnc(-c3ccc(OCCCN4CCSCC4)cc3)o2)cc1`, 85 °C; as for `CCOc1ccc(N(c2ccccc2)C2(c3ccc(N(CC)Cc4ccccc4)cc3)OC(=O)c3cc(N(C)C)ccc32)cc1` (stereo unspecified), 148 to 152 °C. The figure for `Cc1ccc(Sc2nc(Cl)cc(OCCOc3ccccc3)n2)cc1` is 128 to 132 °C; for `N#Cc1nn(-c2c(Cl)cccc2Cl)c(N)c1-c1ccco1` it is 223 °C; for `COc1ccc(Br)c2c1C(=O)C(C=O)C2` (stereo unspecified) it is 76 to 78 °C.

In the case of `COC(=S)CCC[C@@H](O)[C@@H](c1ccccc1)c1ccc2ccccc2c1` (relative stereo), the melting point was 90 °C. As for `CC1(C)C2CCC1(C)C(C(=O)OC(CSc1ccccc1)(C(=O)Nc1ccc(C#N)c(C(F)(F)F)c1)C(F)(F)F)C2` (stereo unspecified), the figure is 140 to 143 °C; as for `O=C1c2ccccc2C(=O)C1c1cccc(O)c1`, 139 to 141 °C; as for `CCCc1ccc(OCCCc2cc3c(cc2O)CCO3)cc1`, 101 to 102 °C.

For the compound `CC1(C)C=Cc2c(O)cc(-c3cc4ccc(O)cc4o3)cc2O1`, the melting point was above 250 °C.

In the case of `COC(=O)c1ccc(NC(=O)CBr)cc1`, the melting point lay in the range of 144 to 146 °C. In turn, `CC(C)(C)Sc1c(CC(C)(C)C(=O)O)n(Cc2ccc(Cl)cc2)c2ccc(Oc3ccccn3)cc12` displayed a melting point of 206 to 207 °C. The figure for `CCC(=O)c1ccc(O)c(C)c1` is 83 to 85 °C; for `CC(=O)N1Cc2c(n(-c3cccc(Cl)c3)c3ncccc3c2=O)C1` it is 170 to 173 °C; for `C=C(C)n1c(=O)n(CCN2CCC(Cc3c[nH]c4ccc(F)cc34)CC2)c2ccccc21` it is 132 °C.

On to `O=C1c2cccc(-c3ccccc3)c2C(=O)C1c1ccccc1` (stereo unspecified), for which the melting point lay within 166 to 168 °C. As for `CC(=O)N1c2c(ccn3c(C)c(C)nc23)C(=O)[C@H](OC(=O)C(C)(C)C)[C@H]1c1ccccc1`, the figure is 168 to 170 °C.

`COCC(=O)NNC(=O)c1cc2cccc(N(C)S(=O)(=O)c3cccs3)c2[nH]1` yielded a melting point of 148 to 149 °C. As for `CCC12CCC3=C(CCc4cc(OC(C)=O)ccc43)C1=CCC2=O` (stereo unspecified), the figure is 122 to 124 °C; as for `COC(=O)c1cnc(C(=O)OC)c2ccccc12`, 69 to 70 °C. As for `CCC(=O)Nc1ccc(NC(=O)CN2CCN(CCCCC(c3ccc(F)cc3)c3ccc(F)cc3)C(C(N)=O)C2)c(C(C)=O)c1` (stereo unspecified), the figure is 163 °C; as for `CCOC(=O)Cc1cc(O)nc(N(CC)CC)n1`, 98 to 100 °C; as for `O=Cc1c(O)cccc1OCc1cccc(C(=O)O)c1`, 209 to 211 °C. As for `CNc1nc(-c2ccc(SC)cc2)n(-c2ccc(C)c(C)c2)c(=O)c1C#N`, the figure is 199 to 205 °C; as for `NC(N)=NC(=O)Cc1c(-c2ccccc2)csc1-c1ccccc1`, 204 to 206 °C; as for `COc1ccc2[nH]c3cc(C(=O)O)c4c(c3c2c1)C(=O)NC4=O`, above 300 °C. `OCC1(Cc2ccc(Cl)c(Cl)c2)CCNCC1` showed a melting point of 148 to 149 °C.

Regarding `CNc1cc(N2CCC(c3ccccc3)CC2)nc(C)n1`, the melting point lay within 186 to 188 °C.

Consider `Cc1ccc(S(=O)(=O)NC(=O)OCCc2ccc(-n3c(CCCc4ccccn4)nc4cc(C(F)(F)F)c(Cl)cc43)cc2)cc1`, for which the melting point came to 193 °C.

With `CC(C)n1nc(-c2c(-c3ccccc3)nn3ccc(OCCN4CC4)cc23)ccc1=O`, the melting point lay within 159 to 160 °C. As for `CCCCOC(=O)N1CCSCC1`, the figure is 72.9 to 78.9 °C; as for `N#Cc1cc([N+](=O)[O-])ccc1N1CCC(OC(=O)c2ccccc2)CC1`, 143 to 145 °C; as for `CCSc1c(O)ccc2[nH]ncc12`, 116 °C. The figure for `CNC(=O)c1cccc(NC(=O)COc2cccc3ccccc23)c1` is 194 °C; for `Cc1ccc(S(=O)(=O)OCC2(C)Cc3cc(Cl)cc(O)c3O2)cc1` (stereo unspecified) it is 135 to 137 °C; for `CN1C(=O)c2ccccc2C(C(=O)O)C1c1ccc(OCc2ccccc2)c(OCc2ccccc2)c1` (stereo unspecified) it is 170 to 172 °C. The compound `COc1cc2c(cc1OC)-c1cc3cc(O)ccc3n1C2=O` yielded a melting point above 260 °C.

For the compound `Cc1ccc(CCCCOCCCCCCNCC(O)c2ccc3c(n2)COC(c2ccccc2)O3)cc1` (stereo unspecified), the melting point came to 74 °C. Take `Cn1cc(C(=O)NCc2ccc(Cl)cc2)c(=O)c2cc(CCCO)sc21`: the melting point lay in the range of 197 to 198 °C.
